Results from patent US8222260B2, “Substituted 6-anilinopurine derivatives as inhibitors of cytokinin oxidase/dehydrogenase and preparations containing these derivatives” (Univerzita Palackego V Olomouci, priority 2007, dated 2012).
Values joined by “and” are separate entries in the source; they are usually repeats but may differ in a detail not shown here. Equal values may be shown once.

Key:
[1] = system: Human diploid fibroblasts HCA; assay: Anti-aging activity: senescence-associated beta-galactosidase in human fibroblasts; format: cell-based; settings: for Senescent Cells (%) HCA passage 25: passage 25, cells expressing senescence-associated beta-galactosidase; for Senescent Cells (%) HCA passage 50: passage 50, cells expressing senescence-associated beta-galactosidase; for Senescent Cells (%) HCA passage 80: passage 80, cells expressing senescence-associated beta-galactosidase
Procedure: In this example, effects of the compounds of this invention on the activity of a senescence biomarker senescence-associated β-galactosidase was studied. Human diploid fibroblasts HCA of various passage levels were used for this purpose. The tested compounds were added to the medium at each passage. After the incubation period, cells were washed with PBS and fixed with 2% formaldehyde and 0.2% glutaraldehyde in PBS. After another wash with PBS, they were incubated with the staining solution comprising potassium ferricyanide (5 mM), potassium ferrocyanide (5 mM), MgCl2 (2 mM), X-gal (5-bromo-4-chloro-3-indolyl-β-D-galactopyranoside) (1 mg/ml), in citric/phosphate buffer (pH 6.0) at 37° C. (without CO2) for at least 1 hour. Following the incubation period, the numbers of cells expressing senescence-associated β-galactosidase (blue cells) were counted using light microscope.

[2] = system: cytokinin-dependent tobacco callus Nicotiana tabacum L. cv. Wisconsin 38; assay: Tobacco callus biotest (plant cell division); format: cell-based; settings: for Activity (%) [10^−5 mol · l^−1 K = 100%]: at the concentration with highest activity, relative to 10^−5 M kinetin
Procedure: The stimulatory effect of the newly prepared derivatives was tested in the calus biotest using cytokinin-dependent tobacco callus. Cytokinin-dependent tobacco callus Nicotiana tabacum L. cv. Wisconsin 38 was maintained at 25° C. in darkness on modified Murashige-Skoog medium, containing per 1 liter: 4 μmol of nicotinic acid, 2.4 μmol of pyridoxine hydrochloride, 1.2 μmol of thiamine, 26.6 μmol of glycine, 1.37 μmol of glutamine, 1.8 μmol of myo-inositol, 30 g of sucrose, 8 g of agar, 5.37 μmol of NAA and 0.5 μmol of 6-benzylaminopurine. Subcultivation was carried out every three weeks. Fourteen days before the bioassay, the callus tissue was transferred to the media without 6-benzylaminopurine. The biological activity was determined from the increase of the fresh callus weight after four weeks of cultivation. Five replicates were prepared for each concentration of the compound tested and the entire test was repeated twice. […] The compounds to be tested were dissolved in dimethylsulfoxide (DMSO) and the solution brought up to 10^−3 M with distilled water.
From the obtained data, the concentration with the highest activity was selected for each compound tested. Relative activity of the compound at this concentration was calculated (Table 11). The activity obtained for 10^−5 M of the control substance kinetin (K) was postulated as 100%.

[3] = system: Amaranthus caudatus cotyledon/hypocotyl explants; assay: Amaranthus bioassay (betacyanin content); format: cell-based, Amaranthus caudatus var. atropurpurea; settings: for Activity (%) [10^−5 mol · l^−1 K = 100%]: at the concentration with highest activity, relative to 10^−5 M kinetin
Procedure: The standard Amaranthus bioassay was performed with the following modifications. The seeds of Amaranthus caudatus var. atropurpurea were surface-sterilised in 10% (w/v) N-chlorobenzenesulfonamide for 10 min and washed 5 times with deionized water. They were placed in 15 cm Petri dishes containing paper tissues saturated with deionized water. After 72 h of cultivation at 25° C. in darkness, the roots of the seedlings were cut off. The explants, consisting of two cotyledons and hypocotyls, were placed in 5 cm Petri dishes onto two layers of filtration paper soaked with 1 ml of the incubation medium containing 10 μmol of Na2HPO4—KH2PO4, pH 6.8, 5 μmol of tyrosine and the compound to be tested. There were 20 explants per dish. The procedure was carried out under green safe light in a darkroom. After 48 h of incubation at 25° C. in darkness, betacyanin was extracted by freezing the explants in 4 ml 3.33 μM acetic acid. The concentration of betacyanin was determined from the absorbances at 537 nm and 620 nm as follows: ΔA=A537nm−A620nm. The values ΔA were plotted against the concentration tested, are means of five replicates and the entire test was repeated at least twice. […] The compounds to be tested were dissolved in dimethylsulfoxide (DMSO) and the solution brought up to 10^−3M with distilled water.
From the obtained data, the concentration with the highest activity was selected for each compound tested. Relative activity of the compound at this concentration was calculated (Tab. 12). The activity obtained for 10^−5 M kinetin (K) was postulated as 100%.

AHK3 = molecular target: T1, AHK3 (Arabidopsis thaliana, UniProt Q9C5U1); assay: Activation of cytokinin receptors (E. coli KMI001 beta-galactosidase reporter); format: cell-based; settings: 28 h incubation; n.a. means no activation
T1 sequence (Q9C5U1 1-1036): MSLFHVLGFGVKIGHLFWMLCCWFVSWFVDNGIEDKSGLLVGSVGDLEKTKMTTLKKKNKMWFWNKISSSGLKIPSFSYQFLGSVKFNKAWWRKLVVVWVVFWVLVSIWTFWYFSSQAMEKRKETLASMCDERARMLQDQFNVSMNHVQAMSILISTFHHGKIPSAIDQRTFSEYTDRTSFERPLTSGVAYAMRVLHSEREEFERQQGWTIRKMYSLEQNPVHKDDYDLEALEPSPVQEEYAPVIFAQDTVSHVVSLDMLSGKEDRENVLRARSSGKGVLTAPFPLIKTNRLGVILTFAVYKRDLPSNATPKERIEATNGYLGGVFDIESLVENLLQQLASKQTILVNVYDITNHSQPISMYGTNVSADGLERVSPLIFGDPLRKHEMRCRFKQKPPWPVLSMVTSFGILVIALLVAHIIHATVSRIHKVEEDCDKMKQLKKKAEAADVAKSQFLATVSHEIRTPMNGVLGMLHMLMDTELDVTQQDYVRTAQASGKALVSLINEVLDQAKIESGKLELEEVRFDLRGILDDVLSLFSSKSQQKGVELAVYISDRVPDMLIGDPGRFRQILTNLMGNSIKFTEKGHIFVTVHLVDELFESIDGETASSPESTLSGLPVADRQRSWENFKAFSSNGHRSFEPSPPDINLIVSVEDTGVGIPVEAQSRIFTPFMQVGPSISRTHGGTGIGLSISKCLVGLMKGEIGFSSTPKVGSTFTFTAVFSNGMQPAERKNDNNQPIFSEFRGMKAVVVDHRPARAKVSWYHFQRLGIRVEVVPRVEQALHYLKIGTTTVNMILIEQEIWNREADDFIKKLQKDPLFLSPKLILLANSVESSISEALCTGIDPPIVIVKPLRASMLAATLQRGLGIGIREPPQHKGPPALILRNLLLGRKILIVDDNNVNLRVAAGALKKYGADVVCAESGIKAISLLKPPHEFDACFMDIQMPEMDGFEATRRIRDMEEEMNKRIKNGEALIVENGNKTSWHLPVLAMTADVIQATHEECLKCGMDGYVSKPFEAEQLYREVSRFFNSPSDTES
Procedure: Escherichia coli strains KMI001 harbouring the plasmid […]4 or […]3 were grown overnight at 25° C. in M9 media enriched with 0.1% casamino acids to OD600 1. The preculture was diluted 1:600 in 1 ml M9 medium containing 0.1% casamino acids and 1 μl stock solution of either the tested compound (10^-7 M-5×10^-5 M) or solvent control (DMSO, ethanol, methanol) were added. The cultures were further grown at 25° C. in microtiter plate, 200 μl per well. […] The cultures were centrifuged and 50 μl aliquots of the supernatant were transferred to microtiter plate containing 2 μl 150 mM 4-methyl umbelliferyl galactoside which was subsequently incubated for 1 h at 37° C. The reaction was stopped by adding 100 μl 0.2 M Na2CO3. […] The EC50 value, the compound concentration activating the receptor to 50%, was calculated from the obtained dose response curves. The values shown in Table 10 are means of three replicates and the entire test was repeated at least twice.

| EC50 (AHK3) [µM] | Compound | Senescent Cells (%) HCA passage 25 [1] [%] | Senescent Cells (%) HCA passage 50 [1] [%] | Senescent Cells (%) HCA passage 80 [1] [%] | Activity (%) [10^−5 mol · l^−1 K = 100%] [3] | also measured |
| --- | --- | --- | --- | --- | --- | --- |
| – | COc1cc(Nc2nc(Cl)nc3nc[nH]c23)ccc1O | 4 | 6 | – | – | – |
| – | COc1cccc(Nc2nc(N)nc3nc[nH]c23)c1 [2-amino-6-(3-methoxyanilino)purine] | 4 | 4 | 22 | – | – |
| – | Nc1nc(Nc2ccc(O)cc2)c2nc[nH]c2n1 [2-amino-(4-hydroanilino)purine] | 3 | 4 | 21 | – | – |
| – | Nc1nc(Nc2ccc(O)cc2)c2[nH]cnc2n1 [2-amino-(4-hydroxyanilino)purine] | 4 | 4 | 18 | – | – |
| – | COc1cccc(Nc2nc(Cl)nc3nc[nH]c23)c1 [2-chloro-6-(3-methoxyanilino)purine] | 5 | 5 | 24 | – | – |
| – | COc1ccc(Nc2nc(Cl)nc3nc[nH]c23)cc1 [2-chloro-6-(4-methoxyanilino)purine] | 4 | 3 | 26 | – | – |
| – | COc1cccc(Nc2nc(F)nc3nc[nH]c23)c1 [2-fluoro-6-(3-methoxyanilino)purine] | 3 | 5 | 29 | – | – |
| – | Oc1ccc(Nc2nc(F)nc3nc[nH]c23)cc1 [2-fluoro-6-(4-hydroxyanilino)purine] | 3 | 4 | 18 | – | – |
| – | CSc1nc(Nc2ccc(O)cc2)c2[nH]cnc2n1 [2-methylthio-6-(4-hydroxyanilino)purine] | 4 | 6 | 34 | – | – |
| – | Fc1ccc(Nc2nc(Cl)nc3[nH]cnc23)cc1 [Compound 7] | – | – | – | 104% | Activity (%) [10^−5 mol · l^−1 K = 100%] [2]: 112% |
| – | COc1ccccc1Nc1nc(Cl)nc2nc[nH]c12 [Compound 11] | – | – | – | 110.3% and 121.7% | Activity (%) [10^−5 mol · l^−1 K = 100%] [2]: 109%; concentration with highest activity ([2]; fresh weight after four weeks): 10^−5 mol · l^−1; concentration with highest activity ([3]; 48 h): 10^−5 mol · l^−1 |
| 33.1 | COc1ccc(Nc2nc(Cl)nc3[nH]cnc23)cc1 [Compound 13] | – | – | – | – | – |
| 22.5 | Fc1ccc(Nc2nc(F)nc3[nH]cnc23)cc1 [Compound 46] | – | – | – | 109% | Activity (%) [10^−5 mol · l^−1 K = 100%] [2]: 110.7% |
| 18.9 | COc1ccc(Nc2nc(F)nc3[nH]cnc23)cc1 [Compound 52] | – | – | – | – | Activity (%) [10^−5 mol · l^−1 K = 100%] [2]: 105% |
| 8.1 | Nc1nc(Nc2ccc(Cl)cc2)c2nc[nH]c2n1 [Compound 67] | – | – | – | 141.7% | – |
| 19.5 | Nc1nc(Nc2ccc(F)cc2)c2nc[nH]c2n1 [Compound 70] | – | – | – | 136% | – |
| 29 | COc1ccccc1Nc1nc(N)nc2[nH]cnc12 [Compound 74] | – | – | – | 108% | – |
| 26.3 | COc1ccc(Nc2nc(N)nc3[nH]cnc23)cc1 [Compound 76] | – | – | – | – | – |
| 10.2 | Sc1nc(Nc2ccc(Cl)cc2)c2nc[nH]c2n1 [Compound 81] | – | – | – | 122.9% | Activity (%) [10^−5 mol · l^−1 K = 100%] [2]: 115.7% |
